Source: patent US11534423B2, “Methods and compositions for improving exercise endurance, performance, or tolerance” (Washington University, priority 2019, dated 2022)

Key:
S1P = biological target: T1, S1P (Mus musculus, UniProt Q9WTZ2); details: 30 mg/kg i.p. injection every 6 hrs for 24 hr; cited from earlier work
T1 construct: from tissue; host or cells: mouse liver (in vivo, i.p. dosing; earlier mouse studies reported elsewhere)
T1 sequence (Q9WTZ2 187-1052): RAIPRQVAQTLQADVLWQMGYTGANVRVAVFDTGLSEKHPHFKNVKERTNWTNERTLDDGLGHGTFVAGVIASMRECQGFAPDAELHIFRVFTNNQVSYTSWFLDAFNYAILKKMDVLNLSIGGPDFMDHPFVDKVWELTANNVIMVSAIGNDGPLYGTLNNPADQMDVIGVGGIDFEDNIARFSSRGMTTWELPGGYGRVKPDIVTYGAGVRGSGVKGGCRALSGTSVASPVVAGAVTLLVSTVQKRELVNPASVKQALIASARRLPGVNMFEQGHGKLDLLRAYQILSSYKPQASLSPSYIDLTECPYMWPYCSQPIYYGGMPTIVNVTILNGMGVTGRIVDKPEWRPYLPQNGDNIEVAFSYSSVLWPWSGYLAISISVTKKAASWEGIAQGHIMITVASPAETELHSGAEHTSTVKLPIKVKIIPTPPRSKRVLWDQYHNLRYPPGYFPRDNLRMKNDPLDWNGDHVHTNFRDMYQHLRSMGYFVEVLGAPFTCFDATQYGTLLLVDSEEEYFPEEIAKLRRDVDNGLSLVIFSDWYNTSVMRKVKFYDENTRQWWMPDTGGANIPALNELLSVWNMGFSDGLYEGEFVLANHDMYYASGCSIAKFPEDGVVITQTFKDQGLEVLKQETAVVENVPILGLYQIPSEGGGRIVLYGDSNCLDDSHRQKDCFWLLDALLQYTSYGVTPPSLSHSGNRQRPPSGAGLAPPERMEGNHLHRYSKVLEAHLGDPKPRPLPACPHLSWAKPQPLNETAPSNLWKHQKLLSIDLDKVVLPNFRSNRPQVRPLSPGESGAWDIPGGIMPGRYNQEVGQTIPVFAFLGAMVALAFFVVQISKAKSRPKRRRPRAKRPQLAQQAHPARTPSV

Wild-type mice = test: acute exercise test to exhaustion after intraperitoneal injection; format: in vivo; details: PF-429242 or vehicle, N=3, FIG. 14
Experimental: Exercise endurance: Mice will undergo a single bout of a graded exercise test to exhaustion using a 4-lane treadmill on a 0% incline, with an electric grid at the back of each treadmill. Three days before the endurance test, mice will have 3 days of acclimation at 10 m/min at 0% incline for 5 min. The test will involve a 5 min acclimation period on the treadmill (turned off), followed by: 5 m/min for 5 min; 10 m/min for 5 min; 15 m/min for 10 min; 25 m/min for 10 min; and finally, 30 m/min until exhaustion is reached. Exhaustion is defined as the inability of the mouse to resume running within 10 s after direct contact on the electric grid and inability to right itself when placed on its back.
Wild-type mice were treated with PF-429242 or vehicle via intraperitoneal injection, and subjected to an acute exercise test to exhaustion (N=3).

CCN(CC)Cc1ccc(C(=O)N(CCc2ccccc2OC)[C@@H]2CCNC2)cc1 [PF-429242]
S1P inhibition in mouse liver (S1P): effectively inhibits S1P
exercise tolerance (Wild-type mice): enhanced exercise tolerance
